Assay results published in patent US10251395B2, “Substituted furano-/thienocycloalkylamino-2-pyrimidine derivatives and use thereof for controlling undesired plant growth” (Bayer CropScience Aktiengesellschaft, priority 2015, dated 2019).

Tests used:
Type in all cases: in vivo
[1] = test system: Viola tricolor; assay: Pre-emergence herbicidal effect; settings: scored visually after 3 weeks
Description: (§1) Seeds of monocotyledonous and dicotyledonous weed plants and crop plants are laid out in wood-fiber pots in sandy loam and covered with soil. The compounds of the invention, formulated in the form of wettable powders (WP) or as emulsion concentrates (EC), are then applied to the surface of the covering soil as aqueous suspension or emulsion at a water application rate equating to 600 to 800 L/ha with addition of 0.2% wetting agent.
(§2) After the treatment, the pots are placed in a greenhouse and kept under good growth conditions for the trial plants. The damage to the test plants is scored visually after a test period of 3 weeks by comparison with untreated controls (herbicidal activity in percent (%): 100% activity=the plants have died, 0% activity=like control plants).
(§3) • ABUTH: Abutilon theophrasti ALOMY: Alopecurus myosuroides • AMARE: Amaranthus retroflexus AVEFA: Avena fatua • CYPES: Cyperus esculentus ECHCG: Echinochloa crus-galli • LOLMU: Lolium multiflorum MATIN: Matricaria inodora • PHBPU: Ipomoea purpurea POLCO: Polygonum convolvulus • SETVI: Setaria viridis STEME: Stellaria media • VERPE: Veronica persica VIOTR: Viola tricolor

[2] = test system: Stellaria media; assay: Pre-emergence herbicidal effect; settings: scored visually after 3 weeks
Description: as §1, §2, §3

[3] = test system: Matricaria inodora; assay: Pre-emergence herbicidal effect; settings: scored visually after 3 weeks
Description: as §1, §2, §3

[4] = test system: Amaranthus retroflexus; assay: Pre-emergence herbicidal effect; settings: scored visually after 3 weeks
Description: as §1, §2, §3

[5] = test system: Stellaria media; assay: Post-emergence herbicidal effect; settings: assessed visually after about 3 weeks vs untreated controls
Description: (§4) • ABUTH: Abutilon theophrasti ALOMY: Alopecurus myosuroides • AMARE: Amaranthus retroflexus AVEFA: Avena fatua • CYPES: Cyperus esculentus ECHCG: Echinochloa crus-galli • LOLMU: Lolium multiflorum MATIN: Matricaria inodora • PHBPU: Ipomoea purpurea POLCO: Polygonum convolvulus • SETVI: Setaria viridis STEME: Stellaria media • VERPE: Veronica persica VIOTR: Viola tricolor Seeds of monocotyledonous and dicotyledonous weed and crop plants are laid out in sandy loam in wood-fiber pots, covered with soil and cultivated in a greenhouse under good growth conditions. 2 to 3 weeks after sowing, the test plants are treated at the one-leaf stage. The compounds of the invention, formulated in the form of wettable powders (WP) or as emulsion concentrates (EC), are then sprayed onto the green parts of the plants as aqueous suspension or emulsion at a water application rate equating to 600 to 800 L/ha with addition of 0.2% wetting agent. After the test plants have been left to stand in the greenhouse under optimal growth conditions for about 3 weeks, the action of the preparations is assessed visually in comparison to untreated controls (herbicidal action in percent (%): 100% activity=the plants have died, 0% activity=like control plants).

[6] = test system: Abutilon theophrasti; assay: Post-emergence herbicidal effect; settings: 320 g/ha, assessed visually after about 3 weeks vs untreated controls
Description: as §4

[7] = test system: Veronica persica; assay: Pre-emergence herbicidal effect; settings: scored visually after 3 weeks
Description: as §1, §2, §3

[8] = test system: Setaria viridis; assay: Pre-emergence herbicidal effect; settings: Dosage 320 g/ha, scored visually after 3 weeks
Description: as §1, §2, §3

[9] = test system: Viola tricolor; assay: Post-emergence herbicidal effect
Description: as §4

[10] = test system: Veronica persica; assay: Post-emergence herbicidal effect
Description: as §4

[11] = test system: Amaranthus retroflexus; assay: Post-emergence herbicidal effect; settings: assessed visually after about 3 weeks vs untreated controls
Description: as §4

[12] = test system: Polygonum convolvulus; assay: Pre-emergence herbicidal effect; settings: Dosage 320 g/ha, scored visually after 3 weeks
Description: as §1, §2, §3

[13] = test system: Alopecurus myosuroides; assay: Pre-emergence herbicidal effect; settings: Dosage 320 g/ha, scored visually after 3 weeks
Description: as §1, §2, §3

[14] = dosage not printed (first line of Ex. 30)
[15] = 320 g/ha, assessed visually after about 3 weeks vs untreated controls
[16] = 80 g/ha, assessed visually after about 3 weeks vs untreated controls

Compound | VIOTR pre-emergence efficacy (herbicidal activity) ([1]; Dosage 320 g/ha) [%] | STEME pre-emergence efficacy (herbicidal activity) ([2]; Dosage 320 g/ha) [%] | MATIN pre-emergence efficacy (herbicidal activity) ([3]; Dosage 320 g/ha) [%] | STEME pre-emergence efficacy (herbicidal activity) ([2]; Dosage 80 g/ha) [%] | AMARE pre-emergence efficacy (herbicidal activity) ([4]; Dosage 320 g/ha) [%] | VERPE pre-emergence efficacy (herbicidal activity) ([7]; Dosage 320 g/ha) [%] | VERPE pre-emergence efficacy (herbicidal activity) ([7]; Dosage 80 g/ha) [%] | POLCO pre-emergence efficacy (herbicidal activity) [12] [%] | also measured
Cc1sc(C)c2c1CCCC2Nc1ncc(C(F)(F)F)c(N)n1 (racemic) [compound 2] | 100 | 100 | 80 |  |  |  |  |  | 
Nc1nc(NC2CCCc3occc32)ncc1C(F)(F)F (racemic) [compound 7] | 100 | 90 | 90 | 80 | 100 |  |  |  | post-emergence efficacy STEME ([5]; 320 g/ha): 80%; post-emergence efficacy ABUTH [6]: 40%
COc1nc(NC2CCCc3sc(C)cc32)ncc1C(F)(F)F (racemic) [compound 10] |  | 100 |  |  | 80 | 100 |  |  | 
N=S(=O)(c1ccccc1)c1cnc(NC2CCCc3sccc32)nc1N (racemic) [compound 27] | 100 | 100 | 100 |  | 100 | 100 |  |  | MATIN pre-emergence efficacy (herbicidal activity) ([3]; Dosage 80 g/ha): 90%
Cc1cc2c(s1)CCCC2Nc1ncc(C(=O)C(F)(F)Cl)c(N)n1 (racemic) [compound 30] | 100 | 100 | 100 | 90 | 100 | 100 | 90 |  | VIOTR pre-emergence efficacy (herbicidal activity) ([1]; Dosage 80 g/ha): 100%; SETVI pre-emergence efficacy (herbicidal activity) [8]: 90%; AMARE pre-emergence efficacy (herbicidal activity) ([4]; Dosage 80 g/ha): 90%; MATIN pre-emergence efficacy (herbicidal activity) ([3]; Dosage 80 g/ha): 100%; post-emergence efficacy VIOTR [9, 14]: 90%; post-emergence efficacy VIOTR ([9]; dosage not printed (second line of Ex. 30)): 80%; post-emergence efficacy VERPE [10, 14]: 80%
Cc1cc2c(s1)CCC2Nc1ncc(S(=O)(=O)NCc2ccc(F)cc2)c(N)n1 (racemic) [compound 38] |  |  | 100 |  | 90 | 90 |  |  | post-emergence efficacy VERPE [10, 15]: 90%; post-emergence efficacy AMARE ([11]; 320 g/ha): 80%
C/C(=N/O)c1cnc(NC2CCCc3sc(Cl)cc32)nc1C (racemic) [compound 259] | 80 | 100 |  |  |  | 100 |  |  | SETVI pre-emergence efficacy (herbicidal activity) [8]: 100%
Cc1cc2c(s1)CCCC2Nc1ncc(-c2cccc(F)c2)c(N)n1 (racemic) [compound 265] |  | 100 | 100 |  |  | 100 | 100 | 60 | post-emergence efficacy VIOTR [9, 16]: 80%; post-emergence efficacy VIOTR [9, 15]: 80%; post-emergence efficacy VERPE [10, 16]: 90%; post-emergence efficacy VERPE [10, 15]: 90%; post-emergence efficacy STEME ([5]; 80 g/ha): 60%; post-emergence efficacy STEME ([5]; 320 g/ha): 60%; post-emergence efficacy AMARE ([11]; 80 g/ha): 80%; post-emergence efficacy AMARE ([11]; 320 g/ha): 80%
Cc1cc2c(s1)CCCC2Nc1ncc(-c2cccc(Cl)c2)c(N)n1 (racemic) [compound 297] | 90 | 100 | 100 | 80 |  | 100 | 100 |  | VIOTR pre-emergence efficacy (herbicidal activity) ([1]; Dosage 80 g/ha): 70%; MATIN pre-emergence efficacy (herbicidal activity) ([3]; Dosage 80 g/ha): 90%
Cc1cc2c(s1)CCCC2Nc1nc(N)c(S(C)(=O)=O)c(C(F)(F)F)n1 (racemic) [compound 298] | 100 | 100 | 100 | 100 | 100 | 100 | 100 | 50 | VIOTR pre-emergence efficacy (herbicidal activity) ([1]; Dosage 80 g/ha): 90%; ALOMY pre-emergence efficacy (herbicidal activity) [13]: 90%; post-emergence efficacy VIOTR [9, 16]: 80%; post-emergence efficacy VIOTR [9, 15]: 80%; post-emergence efficacy AMARE ([11]; 80 g/ha): 70%; post-emergence efficacy AMARE ([11]; 320 g/ha): 90%
Cc1cc2c(s1)CCCC2Nc1nc(N)c(-c2cncc(F)c2)c(C(F)F)n1 (racemic) [compound 299] | 100 |  | 90 |  | 100 |  |  |  | SETVI pre-emergence efficacy (herbicidal activity) [8]: 90%; ALOMY pre-emergence efficacy (herbicidal activity) [13]: 100%; post-emergence efficacy VIOTR [9, 15]: 90%
Cc1cccc(-c2c(N)nc(NC3CCCc4sc(C)cc43)nc2C(F)F)c1 (racemic) [compound 304] |  | 100 |  |  |  | 100 | 100 | 60 | 
CON=C(C)c1cnc(NC2CCCc3sccc32)nc1N (racemic) [compound 310] | 100 | 90 |  |  |  |  |  |  | 
Cc1cc2c(s1)CCCC2Nc1nc(N)c(-c2cncc(F)c2)c(C(C)F)n1 (racemic) [compound 316] | 100 | 100 | 80 |  | 100 | 100 |  | 70 | post-emergence efficacy VIOTR [9, 15]: 80%; post-emergence efficacy VERPE [10, 15]: 100%
Cc1cc2c(s1)CCCC2Nc1nc(N)c(S(C)(=O)=O)c(C(C)F)n1 (racemic) [compound 318] | 100 | 100 | 90 |  | 100 | 100 |  | 100 | SETVI pre-emergence efficacy (herbicidal activity) [8]: 100%
CC(=NOC(C)C)c1cnc(NC2CCCc3sc(C)cc32)nc1N (racemic) [compound 342] |  | 100 | 100 | 100 |  | 100 | 100 |  | ALOMY pre-emergence efficacy (herbicidal activity) [13]: 70%
CC(=O)c1cnc(NC2CCCc3sc(Cl)cc32)nc1C (stereo not shown) [compound 303] | 90 | 100 | 90 | 100 | 100 | 100 | 100 | 60 | VIOTR pre-emergence efficacy (herbicidal activity) ([1]; Dosage 80 g/ha): 70%; AMARE pre-emergence efficacy (herbicidal activity) ([4]; Dosage 80 g/ha): 100%; MATIN pre-emergence efficacy (herbicidal activity) ([3]; Dosage 80 g/ha): 80%
